Publication PMC5564600 (Oncotarget, 2017)
Where two headings read alike, the source gives them in different places.

Columns and labels:
Experiment in all cases: biochemical
Type in all cases: binding
panel of 442 kinases [1] = biological target: T1, panel of 442 kinases (Homo sapiens, UniProt O00444); details: kinase PLK4; for remaining activity at 1 µM: read-out: PLK4 (% of control at 1 µM)
T1 construct: purchased Ambit Biosciences (scanMAXX KINOMEscan)
T1 sequence (O00444 1-970): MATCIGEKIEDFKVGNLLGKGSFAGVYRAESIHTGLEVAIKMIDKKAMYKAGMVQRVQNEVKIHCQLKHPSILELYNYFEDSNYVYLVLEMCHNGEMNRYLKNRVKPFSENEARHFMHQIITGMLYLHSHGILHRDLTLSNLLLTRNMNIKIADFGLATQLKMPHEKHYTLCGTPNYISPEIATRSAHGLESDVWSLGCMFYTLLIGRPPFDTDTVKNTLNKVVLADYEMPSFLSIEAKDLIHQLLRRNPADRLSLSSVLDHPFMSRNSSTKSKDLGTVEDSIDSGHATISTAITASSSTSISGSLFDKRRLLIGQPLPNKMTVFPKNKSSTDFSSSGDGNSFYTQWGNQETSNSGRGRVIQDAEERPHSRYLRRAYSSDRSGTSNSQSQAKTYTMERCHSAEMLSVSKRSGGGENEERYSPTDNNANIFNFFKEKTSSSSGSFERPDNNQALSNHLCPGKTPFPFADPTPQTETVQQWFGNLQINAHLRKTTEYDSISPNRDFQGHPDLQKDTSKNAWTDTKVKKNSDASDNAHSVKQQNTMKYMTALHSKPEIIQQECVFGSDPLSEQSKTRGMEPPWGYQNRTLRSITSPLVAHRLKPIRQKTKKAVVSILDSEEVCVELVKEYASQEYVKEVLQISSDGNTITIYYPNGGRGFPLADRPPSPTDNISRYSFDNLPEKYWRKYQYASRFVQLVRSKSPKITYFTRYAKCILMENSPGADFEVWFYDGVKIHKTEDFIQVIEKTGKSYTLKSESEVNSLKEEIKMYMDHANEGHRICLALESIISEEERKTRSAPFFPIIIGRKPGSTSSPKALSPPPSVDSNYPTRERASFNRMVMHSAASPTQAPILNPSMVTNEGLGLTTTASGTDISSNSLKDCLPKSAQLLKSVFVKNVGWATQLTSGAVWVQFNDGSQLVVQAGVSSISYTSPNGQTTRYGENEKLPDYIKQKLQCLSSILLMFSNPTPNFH

panel of 442 kinases [2] = biological target: T2, panel of 442 kinases (Homo sapiens, UniProt Q14012); details: CAMK1; for remaining activity at 1 µM: read-out: % of control at 1 µM
T2 construct: purchased Ambit Biosciences (scanMAXX KINOMEscan)
T2 sequence (Q14012 whole entry): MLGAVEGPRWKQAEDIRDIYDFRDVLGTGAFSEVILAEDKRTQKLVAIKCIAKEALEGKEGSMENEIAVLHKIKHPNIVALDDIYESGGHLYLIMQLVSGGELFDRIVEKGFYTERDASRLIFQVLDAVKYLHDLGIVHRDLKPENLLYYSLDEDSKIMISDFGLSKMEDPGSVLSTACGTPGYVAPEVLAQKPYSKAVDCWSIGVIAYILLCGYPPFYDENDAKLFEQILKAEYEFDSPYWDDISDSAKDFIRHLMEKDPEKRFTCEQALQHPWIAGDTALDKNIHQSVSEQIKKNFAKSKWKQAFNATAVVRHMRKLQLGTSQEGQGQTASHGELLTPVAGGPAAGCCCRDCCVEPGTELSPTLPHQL

panel of 442 kinases [3] = biological target: T3, panel of 442 kinases (Homo sapiens, UniProt P29597)
T3 construct: purchased Ambit Biosciences (scanMAXX KINOMEscan)
T3 sequence (P29597 whole entry): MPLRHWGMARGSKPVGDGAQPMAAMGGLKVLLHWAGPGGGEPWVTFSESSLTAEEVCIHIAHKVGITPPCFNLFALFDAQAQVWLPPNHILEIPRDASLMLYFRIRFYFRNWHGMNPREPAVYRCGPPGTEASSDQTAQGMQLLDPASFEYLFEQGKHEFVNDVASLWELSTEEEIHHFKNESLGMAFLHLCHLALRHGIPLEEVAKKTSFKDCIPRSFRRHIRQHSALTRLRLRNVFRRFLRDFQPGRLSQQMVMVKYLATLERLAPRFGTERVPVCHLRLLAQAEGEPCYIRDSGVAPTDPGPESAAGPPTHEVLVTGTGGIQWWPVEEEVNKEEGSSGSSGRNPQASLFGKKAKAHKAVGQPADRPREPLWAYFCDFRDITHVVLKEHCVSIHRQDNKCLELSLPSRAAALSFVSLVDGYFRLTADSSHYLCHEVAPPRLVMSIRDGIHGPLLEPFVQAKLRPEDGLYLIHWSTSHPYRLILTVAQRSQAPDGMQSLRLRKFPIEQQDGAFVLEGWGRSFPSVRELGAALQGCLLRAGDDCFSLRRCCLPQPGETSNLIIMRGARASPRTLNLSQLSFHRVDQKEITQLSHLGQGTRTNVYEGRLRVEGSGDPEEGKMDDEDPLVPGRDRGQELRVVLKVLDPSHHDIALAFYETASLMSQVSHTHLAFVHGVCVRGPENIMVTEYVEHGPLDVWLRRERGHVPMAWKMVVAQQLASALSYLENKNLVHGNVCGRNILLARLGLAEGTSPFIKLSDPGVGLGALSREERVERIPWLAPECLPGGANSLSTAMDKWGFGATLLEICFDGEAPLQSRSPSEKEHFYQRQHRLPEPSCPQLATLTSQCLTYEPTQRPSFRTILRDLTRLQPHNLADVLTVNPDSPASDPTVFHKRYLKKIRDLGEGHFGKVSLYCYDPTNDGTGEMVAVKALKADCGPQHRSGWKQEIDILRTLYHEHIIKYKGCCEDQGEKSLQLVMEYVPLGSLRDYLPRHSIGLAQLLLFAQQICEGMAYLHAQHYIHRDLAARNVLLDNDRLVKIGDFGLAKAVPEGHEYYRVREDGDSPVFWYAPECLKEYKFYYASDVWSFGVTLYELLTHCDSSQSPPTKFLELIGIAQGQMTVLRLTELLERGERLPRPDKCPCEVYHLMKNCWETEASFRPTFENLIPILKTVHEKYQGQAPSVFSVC

panel of 442 kinases [4] = biological target: T4, panel of 442 kinases (Homo sapiens, UniProt P28482); details: ERK2; for remaining activity at 1 µM: read-out: % of control at 1 µM
T4 construct: purchased Ambit Biosciences (scanMAXX KINOMEscan)
T4 sequence (P28482 whole entry): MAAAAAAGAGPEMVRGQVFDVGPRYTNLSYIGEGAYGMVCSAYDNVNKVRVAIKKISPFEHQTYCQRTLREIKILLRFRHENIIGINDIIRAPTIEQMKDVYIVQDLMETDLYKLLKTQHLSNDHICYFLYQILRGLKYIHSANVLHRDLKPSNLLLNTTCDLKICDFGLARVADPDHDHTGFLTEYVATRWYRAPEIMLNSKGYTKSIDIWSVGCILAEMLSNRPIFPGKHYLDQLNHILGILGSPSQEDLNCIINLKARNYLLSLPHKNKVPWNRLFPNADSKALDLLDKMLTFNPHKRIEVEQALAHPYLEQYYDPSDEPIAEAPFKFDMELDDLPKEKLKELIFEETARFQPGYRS

panel of 442 kinases [5] = biological target: T5, panel of 442 kinases (Homo sapiens, UniProt Q8TBX8); details: kinase PIP5K2C; for remaining activity at 1 µM: read-out: % of control at 1 µM
T5 construct: purchased Ambit Biosciences (scanMAXX KINOMEscan)
T5 sequence (Q8TBX8 1-421): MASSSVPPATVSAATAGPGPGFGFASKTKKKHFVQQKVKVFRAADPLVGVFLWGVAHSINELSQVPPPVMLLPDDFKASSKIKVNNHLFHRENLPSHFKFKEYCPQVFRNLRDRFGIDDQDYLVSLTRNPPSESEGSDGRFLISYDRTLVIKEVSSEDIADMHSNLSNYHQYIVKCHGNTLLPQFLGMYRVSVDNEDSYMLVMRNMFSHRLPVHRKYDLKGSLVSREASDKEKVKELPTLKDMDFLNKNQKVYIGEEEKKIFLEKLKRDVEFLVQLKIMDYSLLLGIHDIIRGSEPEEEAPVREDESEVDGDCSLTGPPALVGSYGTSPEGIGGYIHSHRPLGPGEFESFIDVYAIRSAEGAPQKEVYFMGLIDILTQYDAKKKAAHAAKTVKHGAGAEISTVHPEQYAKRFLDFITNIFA

panel of 442 kinases [6] = biological target: T6, panel of 442 kinases (Homo sapiens, UniProt Q13237); details: kinase PRKG2; for remaining activity at 1 µM: read-out: PRKG2 (% of control at 1 µM)
T6 construct: purchased Ambit Biosciences (scanMAXX KINOMEscan)
T6 sequence (Q13237 1-762): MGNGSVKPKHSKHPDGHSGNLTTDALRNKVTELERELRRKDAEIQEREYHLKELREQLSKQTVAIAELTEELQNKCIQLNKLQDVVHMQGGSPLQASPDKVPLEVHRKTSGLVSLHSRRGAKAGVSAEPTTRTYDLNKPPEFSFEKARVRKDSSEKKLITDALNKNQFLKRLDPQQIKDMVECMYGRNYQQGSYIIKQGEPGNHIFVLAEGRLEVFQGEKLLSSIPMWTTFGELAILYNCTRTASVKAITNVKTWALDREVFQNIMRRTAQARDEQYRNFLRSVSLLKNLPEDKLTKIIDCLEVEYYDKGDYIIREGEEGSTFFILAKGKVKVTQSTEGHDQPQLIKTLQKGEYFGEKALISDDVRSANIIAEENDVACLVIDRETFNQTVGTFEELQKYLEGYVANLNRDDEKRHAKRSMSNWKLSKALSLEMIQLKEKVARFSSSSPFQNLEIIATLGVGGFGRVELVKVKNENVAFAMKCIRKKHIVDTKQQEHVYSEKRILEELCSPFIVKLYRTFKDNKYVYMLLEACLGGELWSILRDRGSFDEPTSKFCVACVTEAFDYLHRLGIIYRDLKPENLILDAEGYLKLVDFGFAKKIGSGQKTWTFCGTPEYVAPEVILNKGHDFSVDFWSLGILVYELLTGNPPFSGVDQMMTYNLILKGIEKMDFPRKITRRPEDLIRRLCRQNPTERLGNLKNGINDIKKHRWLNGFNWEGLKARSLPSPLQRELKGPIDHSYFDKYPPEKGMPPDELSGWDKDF

panel of 442 kinases [7] = biological target: T7, panel of 442 kinases (Homo sapiens, UniProt P19525); details: kinase PRKR; for remaining activity at 1 µM: read-out: PRKR (% of control at 1 µM)
T7 construct: purchased Ambit Biosciences (scanMAXX KINOMEscan)
T7 sequence (P19525 whole entry): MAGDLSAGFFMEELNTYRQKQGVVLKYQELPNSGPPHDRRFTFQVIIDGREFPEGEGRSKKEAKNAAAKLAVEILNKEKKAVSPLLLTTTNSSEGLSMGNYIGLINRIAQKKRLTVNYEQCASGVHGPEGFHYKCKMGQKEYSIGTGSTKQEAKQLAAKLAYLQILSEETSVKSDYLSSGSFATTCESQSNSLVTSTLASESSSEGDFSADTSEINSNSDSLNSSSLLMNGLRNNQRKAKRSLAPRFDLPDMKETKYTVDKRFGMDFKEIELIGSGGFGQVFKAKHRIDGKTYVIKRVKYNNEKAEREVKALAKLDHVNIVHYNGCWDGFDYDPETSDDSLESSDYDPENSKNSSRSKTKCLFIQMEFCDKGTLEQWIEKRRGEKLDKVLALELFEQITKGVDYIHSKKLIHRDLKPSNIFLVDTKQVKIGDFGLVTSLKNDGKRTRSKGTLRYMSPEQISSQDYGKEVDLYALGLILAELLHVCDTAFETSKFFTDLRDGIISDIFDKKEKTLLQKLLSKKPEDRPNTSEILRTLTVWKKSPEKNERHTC

[8] = 10 µM, read-out: % of control at 10 µM
[9] = kinase TYK2(JH1domain-catalytic), read-out: TYK2(JH1domain-catalytic) (% of control at 1 µM)
[10] = kinase TYK2(JH2domain-pseudokinase), read-out: TYK2(JH2domain-pseudokinase) (% of control at 1 µM)

SMILES	remaining activity at 1 µM (panel of 442 kinases [1]) [%]	remaining activity at 10 µM (panel of 442 kinases [1]; 10 µM, read-out: PLK4 (% of control at 10 µM)) [%]	remaining activity at 1 µM (panel of 442 kinases [2]) [%]	remaining activity at 10 µM (panel of 442 kinases [2]; [8]) [%]	remaining activity at 1 µM (panel of 442 kinases [3]; [9]) [%]	remaining activity at 10 µM (panel of 442 kinases [3]; kinase TYK2(JH1domain-catalytic), read-out: TYK2(JH1domain-catalytic) (% of control at 10 µM)) [%]	remaining activity at 1 µM (panel of 442 kinases [3]; [10]) [%]	remaining activity at 10 µM (panel of 442 kinases [3]; kinase TYK2(JH2domain-pseudokinase), read-out: TYK2(JH2domain-pseudokinase) (% of control at 10 µM)) [%]	remaining activity at 1 µM (panel of 442 kinases [4]) [%]	remaining activity at 10 µM (panel of 442 kinases [4]; [8]) [%]	remaining activity at 1 µM (panel of 442 kinases [5]) [%]	remaining activity at 10 µM (panel of 442 kinases [5]; [8]) [%]	remaining activity at 1 µM (panel of 442 kinases [6]) [%]	remaining activity at 10 µM (panel of 442 kinases [6]; 10 µM, read-out: PRKG2 (% of control at 10 µM)) [%]	remaining activity at 1 µM (panel of 442 kinases [7]) [%]	remaining activity at 10 µM (panel of 442 kinases [7]; 10 µM, read-out: PRKR (% of control at 10 µM)) [%]
Nc1cc(C(F)(F)F)c(-c2cc(N3CCOCC3)nc(N3CCOCC3)n2)cn1 [Buparlisib]	93	87	100	100	100	100	32	22	100	78	71	46	93	100	88	100
Cn1c(=O)n(-c2ccc(C(C)(C)C#N)cc2)c2c3cc(-c4cnc5ccccc5c4)ccc3ncc21 [Dactolisib, 2-methyl-2-[4-(3-methyl-2-oxo-8-quinolin-3-yl-2,3-dihydroimidazo[4,5-c]quinolin-1-yl)-phenyl] propionitrile]	94		78		26		65		88		89		84		95	
COc1ncc(-c2ccc3nccc(-c4ccnnc4)c3c2)cc1NS(=O)(=O)c1ccc(F)cc1F [Omipalisib]	61		100		100		78		100		56		96		84	
FC(F)c1nc2ccccc2n1-c1nc(N2CCOCC2)nc(N2CCOCC2)n1 [ZSTK474, 2-(difluoromethyl)-1-[4,6-di(4-morpholinyl)-1,3,5-triazin-2-yl]-1H-benzimidazole]	84		100		93		97		100		100		95		93	
